Data taken from US20170193176A1, “System, Method, and Software for Improved Drug Efficacy and Safety in a Patient” (Insilico Medicine, Inc., priority 2015, published 2017).

Test system: renal cancer patients
Test: Clinical outcome of renal cancer patients treated with targeted drugs (nibs)
Assay type: in vivo, human
Conditions: for # of transcriptomes taken from responders: sustained stabilization of tumor progress; for # of transcriptomes taken from non-responders: tumor progression despite the applied treatment
Procedure: A set of samples taken from the tumors of renal cancer patients who were treated at Clinical Hospital of the Hertzen Cancer Institute in Moscow. These samples were examined using the Illumina HT-12 platform at Medical Center of Lethbridge University in Canada. As a reference normal renal tissue, the dataset GSE49972 (Karlsson et al., 2014) obtained on the same platform, was used. […] The overview of renal cancer transcriptomes selected for the V-dataset, is shown below in Table 3.
As an example, we list here the details of case history for one of the patient, who has been a responder to Sunitinib treatment.
Person; the clear cell cancer in left kidney; disease progression stage T3N0M1, distant metastases to lungs and skeleton. Surgery has not been performed due to the overall progression of the disease. Before the chemotherapy for distant metastases, the patient received the symptomatic radiation therapy of 30 Gy on the pelvic and femoral zone. Two months after the patient received the neo-adjuvant Sunitinib therapy in overall dose of 50 mg.
As long as two years after the treatment, the patient was still alive and continued to receive the adjuvant Sunitinib therapy.

Structure (SMILES) | # of transcriptomes taken from responders | # of transcriptomes taken from non-responders
Cc1ccc(Nc2nccc(N(C)c3ccc4c(C)n(C)nc4c3)n2)cc1S(N)(=O)=O [Pazopanib] | 4 | 3
CCN(CC)CCNC(=O)c1c(C)[nH]c(/C=C2\C(=O)Nc3ccc(F)cc32)c1C [Sunitinib] | 5 | 10
CNC(=O)c1cc(Oc2ccc(NC(=O)Nc3ccc(Cl)c(C(F)(F)F)c3)cc2)ccn1 [Sorafenib] | 13 | 15
